From patent publication US20130040853A1, “Context Specific Genetic Screen Platform to Aid in Gene Discovery and Target Validation” (Dana-Farber Cancer Institute Inc., priority 2010, published 2013)

System: HMEL-BRAF^V600E melanocytes
Experiment: In vivo functional genetic screen and secondary validation: kinase-transduced HMEL cells implanted in nude mice
Set-up: species or system human
Source text: A ‘cancer-kinase’ library was constructed containing sequence-verified ORFs in a lentiviral vector for 110 of the 120 kinases reported to sustain somatic driver mutations in diverse human cancers. This library was pooled and introduced into a human HMEL-BRAF^V600E melanocyte model system engineered with BRAF^V600E and TERT as well as p53DD and CDK4-R24C to inactivate the […] pathways, respectively. The HMEL-BRAF^V600E melanocyte profile, while representing the most common clinically-definable genetic profile in human melanoma, is insufficient to drive efficient melanoma formation following orthotopic transplantation in the skin (penetrance of 10% and latency of 26 weeks). In contrast, 40% of HMEL-BRAF^V600E melanocytes transduced with the cancer kinase pools developed tumors with an average latency of 13 weeks (range 10-18 weeks).
In vivo functional genetic screens: Lentivirus were prepared by co-transfecting 293T cells with individual vector backbones and standard virus packaging systems for subsequent collection of viral supernatants. Viral supernatants were then pooled randomly to generate 8 pools of high-titer lentiviral stocks. HMEL cells were transduced with either GFP control lentivirus or each representative lentiviral pool in the presence of 8 ug/ml polybrene (Company). […]

In the case of “JNK2 WT: wild type MAPK9/JNK2 kinase ORF expressed in HMEL cells”, the Tumorigenicity in vivo (WT or mutant kinase expressed individually) is reported as “YES” and the tumor penetrance (secondary validation, kinase transduced individually into HMEL-BRAF^V600E melanocytes) is reported as 50%.
